“And” between values parts separate entries of the source, which are not always exact repeats. Identical values can stand only once.
Legend:
[1] = tested on: H9c2 cardiomyocyte damage induced by hypoxia; assay: Hypoxia-induced H9c2 cardiomyocyte damage, mitochondrial function (MitoTracker Deep Red FM, high-content imaging); assay type: cell-based; conditions: for mitochondrial function (Table 9): individual replicates N1-N3
Description: (§1) 2. Experimental methods: QSYQ-1 and QSYQ-2, and each active ingredient group were ultrasonically dissolved and prepared into a 0.4 mg/mL of stock solution with DMSO. When in vitro activity evaluation was performed, the above groups were diluted with the same amount of experimental medium respectively.
(§2) The cells were collected at the logarithmic growth phase and added to a 96-well culture plate with a black transparent bottom at a concentration of 5000 cells per well and a volume of 100 μL per well. The cells were incubated in an incubator with 5% CO2 at 37° C. for 24 hours. Subsequently, the tested groups were added to the experimental groups respectively, incubated for 24 hours, and then placed in a hypoxic chamber passing a mixed gas composed of 95% nitrogen and 5% CO2 at a flow rate of 15 L/min for 10 mins, and incubated for another 8 hours after inducing hypoxia damage at 37° C. The model group was only incubated for 8 hours under hypoxia, and the blank control group was incubated normally.
(§3) The labeling operation of cell fluorescent probe was as follows: the mother liquor of fluorescent probe Hoechst 33342 was diluted 1000-fold into a DMEM basic medium; then the mother liquor of MitoTracker Deep Red FM was diluted 10000-fold into a culture medium containing Hoechst 33342 to serve as a “cocktail” stain. The medium in the culture plate was discarded and replaced with the “cocktail” stain, 50 μL per well, and incubated in an incubator away from light for 30 mins. The plate was taken out away from light, and washed with DMEM (high glucose) for 3 times and 5 minutes each time. Live cell imaging was performed subsequently.
(§4) The operation of live cell imaging with HCS was as follows: an excitation light of 360-400 and an emission light of 410-480 were selected for the imaging of Hoechst 33342-labeled nuclei; an excitation light of 620-640 and an emission light of 650-760 were selected for the imaging of MitoTracker Deep Red FM-labeled mitochondria. Harmony 3.0 software was applied to analyze the HCS imaging and read the fluorescence intensities of the nucleus/cytoplasm. The HCS screening system combined the automatic fluorescence microscopy imaging functions, and can perform a high-throughput multi-index analysis. Columbus high-efficiency image and data management and analysis system were applied to perform a secondary analysis and management of the image and data, and draw the dosage-dependent curve relationship.

[2] = tested on: H9c2 cardiomyocyte damage induced by hypoxia; assay: Hypoxia-induced H9c2 cardiomyocyte damage, nucleus number (Hoechst 33342, high-content imaging); assay type: cell-based; conditions: for nucleus number (Table 7): individual replicates N1-N3, 0.4 mg/mL DMSO stock diluted with medium
Description: as §1, §2, §3, §4

[3] = mean of N1-N3, 24 h pre-incubation, then hypoxia 8 h
[4] = 24 h pre-incubation, then hypoxia 8 h

Molecule	mitochondrial function, Mean (Table 9) [1, 3]	nucleus number, Mean (Table 7) [2, 3]	mitochondrial function (Table 9) [1, 4]	nucleus number (Table 7) [2, 4]	also measured
COc1ccc(-c2coc3cc(O)ccc3c2=O)cc1O [Calycosin, calycosin]	905.6	386.0			
COc1ccc(-c2coc3cc(O[C@@H]4O[C@H](CO)[C@@H](O)[C@H](O)[C@H]4O)ccc3c2=O)cc1O [Calycosin-7-glucoside, calycosin-7-glucoside]	902.3	333.7	967.77 and 861.05 and 877.99	312 and 366 and 323	
C[C@H]1COC2=C1C(=O)C(=O)c1c2ccc2c1CCCC2(C)C [Cryptotanshinone, cryptotanshinone]	853.8	349.0			
O=C(O)[C@H](O)Cc1ccc(O)c(O)c1 [Danshensu]	879.0	346.3	909.24 and 845.81 and 882.04	326 and 371 and 342	
Cc1cccc2c3c(ccc12)C1=C(C(=O)C3=O)[C@@H](C)CO1 [Dihydrotanshinone I, dihydrotanshinone I]	887.3	339.7	930.1 and 918.77 and 813.04	303 and 373 and 313	
COc1ccc(-c2coc3cc(O)ccc3c2=O)cc1 [Formononetin, formononetin]	863.7	376.3			
CC(C)=CCC[C@](C)(O[C@@H]1O[C@H](CO[C@@H]2O[C@H](CO)[C@@H](O)[C@H](O)[C@H]2O)[C@@H](O)[C@H](O)[C@H]1O)[C@H]1CC[C@]2(C)[C@@H]1[C@H](O)C[C@@H]1[C@@]3(C)CC[C@H](O[C@@H]4O[C@H](CO)[C@@H](O)[C@H](O)[C@H]4O[C@@H]4O[C@H](CO)[C@@H](O)[C@H](O)[C@H]4O)C(C)(C)[C@@H]3CC[C@]12C [Ginsenoside Rb1, ginsenoside Rb1]	814.6	404.0	778.78 and 843.1 and 822.04	406 and 420 and 386	
CC(C)=CCC[C@](C)(O[C@@H]1O[C@H](CO)[C@@H](O)[C@H](O)[C@H]1O)[C@H]1CC[C@]2(C)[C@@H]1[C@H](O)C[C@@H]1[C@@]3(C)CC[C@H](O[C@@H]4O[C@H](CO)[C@@H](O)[C@H](O)[C@H]4O[C@@H]4O[C@H](CO)[C@@H](O)[C@H](O)[C@H]4O)C(C)(C)[C@@H]3CC[C@]12C [Ginsenoside Rd, ginsenoside Rd]					mitochondrial function, Mean (Table 9) ([1]; 8 h): 820.9; nucleus number, Mean (Table 7) ([2]; 8 h): 408.0
CC(C)=CCC[C@](C)(O[C@@H]1O[C@H](CO)[C@@H](O)[C@H](O)[C@H]1O)[C@H]1CC[C@]2(C)[C@@H]1[C@H](O)C[C@@H]1[C@@]3(C)CC[C@H](O)C(C)(C)[C@@H]3[C@@H](O[C@@H]3O[C@H](CO)[C@@H](O)[C@H](O)[C@H]3O)C[C@]12C [Ginsenoside Rg1, ginsenoside Rg1]	905.5	308.0	843.46 and 918.73 and 954.27	264 and 310 and 350	
O=C(/C=C/c1ccc(O)c2c1C=Cc1cc(O)c(O)cc1O2)O[C@H](Cc1ccc(O)c(O)c1)C(=O)O [Isosalvianolic acid C, isosalvianolic acid C]	772.6	304.0	766.96 and 812.08 and 738.89	293 (2×) and 326	
O=C(/C=C/c1ccc(O)c2c1[C@H](C(=O)O)[C@@H](c1ccc(O)c(O)c1)O2)O[C@H](Cc1ccc(O)c(O)c1)C(=O)O [Lithospermic acid, lithospermic acid]	811.6	356.0			
CC(C)=CCC[C@](C)(O[C@@H]1O[C@H](CO)[C@@H](O)[C@H](O)[C@H]1O)[C@H]1CC[C@]2(C)[C@@H]1[C@H](O)C[C@@H]1[C@@]3(C)CC[C@H](O)C(C)(C)[C@@H]3[C@@H](O[C@@H]3O[C@H](CO)[C@@H](O)[C@H](O)[C@H]3O[C@@H]3OC[C@@H](O)[C@H](O)[C@H]3O)C[C@]12C [Notoginsenoside R1, notoginsenoside R1]	925.9	366.0		360 and 383 and 355	mitochondrial function (Table 9) ([1]; 24 h pre-incubation, then hypoxia 8 h, listed as Notoainsenoside R1): 841.9 and 950.39 and 985.33
COc1ccc(-c2coc3cc(O[C@@H]4O[C@H](CO)[C@@H](O)[C@H](O)[C@H]4O)ccc3c2=O)cc1 [Ononin, ononin]	695.0	366.0			
O=Cc1ccc(O)c(O)c1 [Protocatechuic aldehyde, protocatechuic aldehyde]	909.7	336.3	946.04 and 881.05 and 901.89	361 and 345 and 303	
O=C(/C=C/c1ccc(O)c(O)c1)O[C@H](Cc1ccc(O)c(O)c1)C(=O)O [Rosmarinic acid, rosmarinic acid]	790.6	345.3			
O=C(/C=C/c1ccc(O)c(O)c1/C=C/c1ccc(O)c(O)c1)O[C@H](Cc1ccc(O)c(O)c1)C(=O)O [Salvianolic acid A, salvianolic acid A]	905.1	268.3		264 and 287 and 254	mitochondrial function (Table 9) ([1]; 24 h pre-incubation, then hypoxia 8 h, listed as Saivianolic acid A): 914.19 and 859.26 and 941.93
O=C(/C=C/c1ccc(O)c2c1[C@H](C(=O)O[C@H](Cc1ccc(O)c(O)c1)C(=O)O)[C@@H](c1ccc(O)c(O)c1)O2)O[C@H](Cc1ccc(O)c(O)c1)C(=O)O [Salvianolic acid B, salvianolic acid B]	855.2	394.7	801.62 and 853.39 and 910.53	385 and 364 and 435	
O=C(O)Cc1c(/C=C/C(=O)O[C@H](Cc2ccc(O)c(O)c2)C(=O)O)ccc(O)c1O [Salvianolic acid D, salvianolic acid D]	922.3	271.7	946.71 and 900.04 and 920.17	306 and 236 and 273	
O=C(O)C1Cc2ccc(O)c3c2C(=Cc2ccc(O)c(O)c2O3)C1=O (centres unmarked) [Salvianolic acid G, salvianolic acid G]	867.7	366.3		380 and 328 and 391	mitochondrial function (Table 9) ([1]; 24 h pre-incubation, then hypoxia 8 h, listed as Saivianolic acid G): 870.9 and 831.06 and 901.01
O=C(/C=C/c1ccc(O)c(O)c1/C(=C\c1ccc(O)c(O)c1)C(=O)O)O[C@H](Cc1ccc(O)c(O)c1)C(=O)O [Salvianolic acid T, salvianolic acid T]	842.6	296.0	815.14 and 888.53 and 824.27	325 and 279 and 284	
O=C(/C=C/c1ccc(O)c(O)c1/C(=C\c1ccc(O)c(O)c1)C(=O)O)O[C@H](Cc1ccc(O)c(O)c1)C(=O)O [Salvianolic acid U, salvianolic acid U]	909.3	305.3	992.37 and 840.14 and 895.53	349 and 315 and 252	
Cc1coc2c1C(=O)C(=O)c1c-2ccc2c(C)cccc12 [Tanshinone I, tanshinone I]	869.8	331.3	876.03 and 904.55 and 828.87	379 and 315 and 300	
Cc1coc2c1C(=O)C(=O)c1c-2ccc2c1CCCC2(C)C [Tanshinone IIA, tanshinone IIA]	695.2	393.3			
astragaloside [Astragaioside]	817.5	391.3		374 and 365 and 435	mitochondrial function (Table 9) ([1]; 24 h pre-incubation, then hypoxia 8 h, listed as Astradaloside): 812.45 and 768.63 and 871.37

Source: US11491173B2, “Pharmaceutical composition and application thereof” (priority 2018, dated 2022)
